For the test, the system named is T1, AnXltB.
T1 construct: gene xltB; whole-cell uptake
Briefly: […]-sugar initial uptake ([…] s) in yeast, Michaelis-Menten fit. Format: cell-based, Aspergillus niger. The following applies: labelled compound; transport into intact cells; 100 mM PBS pH 6.5, 30 °C; read-out: Xylose initial uptake kinetics / K m.

Regarding `OC1OC[C@@H](O)[C@H](O)[C@H]1O` (stereo partly shown) [xylose], the Km was determined as 15 ± 4.5 mM.

(Values after article PMC4955148, “Identification and functional characterization of novel xylose transporters from the cell factories Aspergillus niger and Trichoderma reesei” (Biotechnology for Biofuels, 2016).)
